In patent publication US9034857B2 (Health Research, Inc., priority 2010, dated 2015):
Entries after “also recorded” stand apart in the source; their conditions may differ. Read-outs that look alike come from different tables or passages of the source.

Assays:
[1] = test system: Saccharomyces cerevisiae; experiment: Chronological lifespan (CLS) of budding yeast; assay type: cell-based
[2] = test system: O2- in stationary phase cells; experiment: Levels of O2- detected by DHE fluorescence in stationary phase cells; assay type: cell-based, Saccharomyces cerevisiae; settings: for Superoxide anions: Table 2 summary, stationary phase
Experimental: The following materials and methods were used to obtain the data presented in this Example. To assess CLS 50 ml cultures were inoculated with 1% (v/v) of a fresh overnight culture in either SC or YPD. SC was supplemented using known techniques. In experiments that employed media that initially contained 10% glucose, control 2% glucose cultures also contained 8% sorbitol to maintain equivalent osmolarity. Determination of chronological life span, fraction of budded cells, flow cytometry measurements of DNA content and measurements of dihydroethidium (DHE) and dihydrorhodamine 123 (DHR) were used according to standard methods. N-acetylcysteine (NAC) and glutathione (GSH) were dissolved in growth medium, filter sterilized and added to cultures from 100 mM (NAC) or 250 mM (GSH) stocks at the start of experiments. Propidium iodide (PI) was used to assess viability of cells by mixing a 2 μl of cells with an equal volume of 1 mM PI on a microscope slide and examining the slide with a fluorescence microscope equipped with a Texas Red filter. Non-fluorescent cells were scored as intact (live) and fluorescent cells were scored as dead. The total number of cells in cultures was determined by particle counts using a Petroff Hauser counting chamber. Samples for transmission electron microscopy were prepared using standard methods. Briefly, cells cultured at 30° C. in YPD medium for 3 to 5 days were harvested by gentle centrifugation, washed in phosphate buffered saline (PBS) (pH=7.2), resuspended in 2.5% (v/v) glutaraldehyde in PBS and fixed for 40 min at room temperature. Cells were further fixed by 2% freshly prepared potassium permanganate in water for 1 hour at room temperature. Fixed cells were dehydrated with 30%, 50%, 75%, 85%, 95%, and 100% ethanol. Cells were transitioned with propylene oxide, infiltrated in Spurr resin (Electron Microscopy Sciences, PA). Resin was polymerized at 65° C. overnight in the oven. 60 nm ultrathin sections were cut with a diamond knife, stained with 2% uranyl acetate and lead citrate and examined using a Hitachi H-7000 electron microscope, equipped with a 4K×4K cooled CCD digital camera (Gatan, Inc., CA). Values presented in graphs that contain error bars represent means and standard deviations from three or more independent experiments. Other results are representative of at least three independent experiments. Statistical analyses were performed using Student's t-test. P<0.05 was considered statistically significant.

[3] = test system: mammalian cells; settings: cited from earlier work
[4] = test system: intracellular O2- in stationary phase budding yeast cells; experiment: High throughput flow cytometry DHE screen for reduction of superoxide in stationary phase budding yeast; assay type: cell-based, S. cerevisiae
[5] = test system: interleukin-6 release from human macrophages; experiment: Interleukin-6 release from human macrophages; assay type: cell-based
[6] = test system: budding yeast; settings: cited from earlier work
[7] = test system: ribonucleotide reductase; settings: low levels of hydroxyurea; cited from earlier work
[8] = dose response assays from 0.004 uM to 30 uM, 7 day incubation, 7% glucose

CC(=O)N[C@@H](CS)C(=O)O [N-acetylcysteine]
chronological lifespan (CLS) ([1]; sch9Δ cells): not sch9Δ cells | chronological lifespan (CLS) ([1]; wild type cells, listed as NAC): shortened CLS in a dose-dependent fashion; also recorded: shorten CLS | levels of O2- (DHE fluorescence) [2]: absent | Superoxide anions [2]: ↑ | levels of O2- (DHE fluorescence) ([2]; wild type cells, day 3 of medium depletion, listed as NAC): dose-dependent increases; also recorded: elevate O2- levels | induction of O2- [3]: induction of O2-

c1ccc2nc3cc4[nH]cnc4cc3nc2c1 [MLS000700045, 1H-imidazo[4,5-b]phenazine]
reducing superoxide anions in S. cerevisiae [4]: reducing superoxide anions | dose dependency in re-screening (reduction of superoxide, DHE) [4, 8]: identified by dose dependency; also recorded: exhibited dose dependency | inhibition of interleukin-6 release [5]: inhibit interleukin-6 release

COC1=C(OC)C(=O)C(C/C=C(\C)CC/C=C(\C)CC/C=C(\C)CC/C=C(\C)CC/C=C(\C)CC/C=C(\C)CC/C=C(\C)CC/C=C(\C)CC/C=C(\C)CCC=C(C)C)=C(C)C1=O [coenzyme Q10]
pro-oxidant effects [6]: pro-oxidant effects

NC(=O)NO [hydroxyurea]
shortening of CLS [7]: 20-27%

N[C@@H](CCC(=O)N[C@@H](CS)C(=O)NCC(=O)O)C(=O)O [GSH, glutathione]
Superoxide anions [2]: ↓ | levels of O2- (DHE fluorescence) ([2]; wild type cells, day 3 of medium depletion): reduced levels of O2-

Cc1ccc(-c2nn(C(C)(C)C)c3ncnc(N)c23)cc1 [MLS000326642, 1-tert-butyl-3-(4-methylphenyl)pyrazolo[3,4-d]pyrimidin-4-amine]
dose dependency in re-screening (reduction of superoxide, DHE) [4]: identified by dose dependency; also recorded: exhibited dose dependency | reducing superoxide anions in S. cerevisiae [4]: reducing superoxide anions | inhibition of interleukin-6 release [5]: inhibit interleukin-6 release

Cc1c(C)c2c(c(C)c1O)CC[C@@](C)(CCC[C@H](C)CCC[C@H](C)CCCC(C)C)O2 [α-tocopherol]
pro-oxidant effects [6]: pro-oxidant effects

COc1ccc2nc3ccccc3nc2c1 [MLS001048992, 2-methoxyphenazine]
dose dependency in re-screening (reduction of superoxide, DHE) [4, 8]: identified by dose dependency; also recorded: exhibited dose dependency

C[C@]12CCC3C(CC[C@H]4C[C@@H](O)CC[C@]34C)[C@H]1CC[C@H]2O (stereo partly drawn) [MLS002554375, (3S,5S,10S,13S,14R,17R)-10,13-dimethyl-2,3,4,5,6,7,8,9,11,12,14,15,16,17-tetradecahydro-1H-cyclopenta[a]phenanthrene-3,17-diol]
dose dependency in re-screening (reduction of superoxide, DHE) [4]: identified by dose dependency; also recorded: exhibited dose dependency

c1ccc2nc3ccccc3nc2c1 [MLS000584128, phenazine]
dose dependency in re-screening (reduction of superoxide, DHE) [4, 8]: identified by dose dependency; also recorded: exhibited dose dependency

O=C(c1cccc2nc3ccccc3nc12)N1CCOCC1 [MLS001044337, morpholin-4-yl(phenazin-1-yl)methanone]
dose dependency in re-screening (reduction of superoxide, DHE) [4, 8]: identified by dose dependency; also recorded: exhibited dose dependency

O=C(/C=C/c1ccccc1)NC(=S)NNC(=O)Cc1cccs1 [MLS000121367, (E)-3-phenyl-N—[[(2-thiophen-2-ylacetyl)amino]carbamothioyl]prop-2-enamide]
dose dependency in re-screening (reduction of superoxide, DHE) [4, 8]: identified by dose dependency; also recorded: exhibited dose dependency

OCC[n+]1c2ccccc2nc2ccc(N3CCOCC3)cc21 [MLS000768911, 2-(3-morpholin-4-ylphenazin-5-ium-5-yl)ethanolperchlorate]
dose dependency in re-screening (reduction of superoxide, DHE) [4, 8]: identified by dose dependency; also recorded: exhibited dose dependency

CC(C)(C)n1nc(-c2ccc(F)cc2)c2c(N)ncnc21 [MLS000326584, 1-tert-butyl-3-(4-fluorophenyl)pyrazolo[3,4-d]pyrimidin-4-amine]
dose dependency in re-screening (reduction of superoxide, DHE) [4, 8]: identified by dose dependency; also recorded: exhibited dose dependency

C[C@]12CCC3C(CC[C@H]4C[C@H](O)CC[C@]34C)C1CCC2=O (stereo partly drawn) [MLS002554454, (3R,5S,10S,13S)-3-hydroxy-10,13-dimethyl-1,2,3,4,5,6,7,8,9,11,12,14,15,16-tetradecahydrocyclopenta[a]phenanthren-17-one]
dose dependency in re-screening (reduction of superoxide, DHE) [4]: identified by dose dependency; also recorded: exhibited dose dependency

O=C(Nc1ccccc1-c1cn2c(CN3CCNCC3)csc2n1)c1cnc2ccccc2n1 [SRT1720, reference compound]
reducing superoxide anions in S. cerevisiae [4]: reducing superoxide anions | inhibition of interleukin-6 release [5]: inhibit interleukin-6 release
